Measured values taken from ChEMBL document CHEMBL1131942, “(3-substituted benzyl)thiazolidine-2,4-diones as structurally new antihyperglycemic agents” (Bioorg Med Chem Lett, 1999).

Legend:
Format in all cases: functional
Mus musculus [1] = assay: Antihyperglycemic activity in obese mice(ob/ob) at 1 mg/kg peroral administration; details: route oral
Mus musculus [2] = assay: In vivo decrease in glucose in obese mice(ob/ob) at 1 mg/kg/day peroral administration for 2 weeks; details: route oral
Mus musculus [3] = assay: In vivo decrease in triglyceride in obese mice(ob/ob) by 0.3 mg/kg/day peroral administration for 2 weeks; details: route oral
Mus musculus [4] = assay: In vivo decrease in insulin in obese mice(ob/ob) at 3 mg/kg/day peroral administration for 2 weeks; details: route oral
Mus musculus [5] = assay: In vivo decrease in insulin in obese mice(ob/ob) at 0.3 mg/kg/day peroral administration for 2 weeks; details: route oral
Mus musculus [6] = assay: Antihyperglycemic activity was determined in obese (ob/ob) mice by po administration at a dose of 10 mg/kg
Mus musculus [7] = assay: In vivo decrease in glucose in obese mice(ob/ob) by 1 mg/kg/day peroral administration for 2 weeks; details: route oral
Mus musculus [8] = assay: In vivo decrease in glucose in obese mice(ob/ob) by 0.3 mg/kg/day peroral administration for 2 weeks; details: route oral
Mus musculus [9] = assay: In vivo decrease in triglyceride in obese mice(ob/ob) by 3 mg/kg/day peroral administration for 2 weeks; details: route oral
Mus musculus [10] = assay: In vivo decrease in insulin in obese mice(ob/ob) at 10 mg/kg/day peroral administration for 2 weeks; details: route oral
Mus musculus [11] = assay: In vivo decrease in glucose in obese mice(ob/ob) at 10 mg/kg/day peroral administration for 2 weeks; details: route oral
Mus musculus [12] = assay: In vivo decrease in insulin in obese mice(ob/ob) at 1 mg/kg/day peroral administration for 2 weeks; details: route oral
Mus musculus [13] = assay: Antihyperglycemic activity in obese mice(ob/ob) at 3 mg/kg peroral administration; details: route oral
Mus musculus [14] = assay: In vivo decrease in glucose in obese mice(ob/ob) at 3 mg/kg/day peroral administration for 2 weeks; details: route oral
Mus musculus [15] = assay: In vivo decrease in glucose in obese mice(ob/ob) by 10 mg/kg/day peroral administration for 2 weeks; details: route oral

COc1ccc(CC2SC(=O)NC2=O)cc1C(=O)NCc1ccc(C(F)(F)F)cc1 (configuration not stated)
Decrease in blood glucose (Mus musculus [1]): 35%
Rate of decrease (Mus musculus [2]): 78%
Rate of decrease (Mus musculus [3]): 67%
Rate of decrease (Mus musculus [4]): 83%
Rate of decrease (Mus musculus [5]): 55%
Decrease in blood glucose (Mus musculus [6]): 58%
Rate of decrease (Mus musculus [7]): 80%
Rate of decrease (Mus musculus [8]): 77%
Rate of decrease (Mus musculus [9]): 122%
Rate of decrease (Mus musculus [10]): 87%
Rate of decrease (Mus musculus [11]): 100%
Rate of decrease (Mus musculus [12]): 59%
Decrease in blood glucose (Mus musculus [13]): 53%
Rate of decrease (Mus musculus [14]): 95%
Rate of decrease (Mus musculus [15]): 130%

COc1ccc(CC2SC(=O)NC2=O)cc1C(=O)NCc1cccc(C(F)(F)F)c1 (configuration not stated)
Decrease in blood glucose (Mus musculus [6]): 41%

CCN(Cc1ccc(C(F)(F)F)cc1)C(=O)c1cc(CC2SC(=O)NC2=O)ccc1OC (configuration not stated)
Decrease in blood glucose (Mus musculus [6]): 31%

COc1ccc(C2SC(=O)NC2=O)cc1C(=O)NCc1ccc(C(F)(F)F)cc1 (configuration not stated)
Decrease in blood glucose (Mus musculus [1]): 27%
Decrease in blood glucose (Mus musculus [6]): 48%
Decrease in blood glucose (Mus musculus [13]): 36%

CC(C)Oc1ccc(CC2SC(=O)NC2=O)cc1C(=O)NCc1ccc(C(F)(F)F)cc1 (configuration not stated)
Decrease in blood glucose (Mus musculus [6]): 45%

COc1ccc(CC2SC(=O)NC2=O)cc1C(=O)NCc1ccc(C)cc1 (configuration not stated)
Decrease in blood glucose (Mus musculus [6]): 30%

COc1ccc(CC2SC(=O)NC2=O)cc1C(=O)NCCc1ccc(C(F)(F)F)cc1 (configuration not stated)
Decrease in blood glucose (Mus musculus [6]): 3%

O=C1NC(=O)C(Cc2ccc(F)c(C(=O)NCc3ccc(C(F)(F)F)cc3)c2)S1 (configuration not stated)
Decrease in blood glucose (Mus musculus [6]): 50%

Cc1c(C)c2c(c(C)c1O)CCC(C)(COc1ccc(CC3SC(=O)NC3=O)cc1)O2 (configuration not stated) [TROGLITAZONE]
Decrease in blood glucose (Mus musculus [6]): 9%

CCc1ccc(CCOc2ccc(CC3SC(=O)NC3=O)cc2)nc1 (configuration not stated) [PIOGLITAZONE]
Rate of decrease (Mus musculus [4]): 43%
Decrease in blood glucose (Mus musculus [6]): 14%
Rate of decrease (Mus musculus [9]): 85%
Rate of decrease (Mus musculus [10]): 41%
Rate of decrease (Mus musculus [11]): 75%
Rate of decrease (Mus musculus [14]): 64%
Rate of decrease (Mus musculus [15]): 99%

O=C1NC(=O)C(Cc2ccc(O)c(C(=O)NCc3ccc(C(F)(F)F)cc3)c2)S1 (configuration not stated)
Decrease in blood glucose (Mus musculus [1]): 7%
Decrease in blood glucose (Mus musculus [6]): 34%
Decrease in blood glucose (Mus musculus [13]): 12%

COc1ccc(CC2SC(=O)NC2=O)cc1C(=O)NCc1ccc(C(C)(C)C)cc1 (configuration not stated)
Decrease in blood glucose (Mus musculus [6]): 5%

COc1ccc(CNC(=O)c2cc(CC3SC(=O)NC3=O)ccc2OC)cc1OC (configuration not stated)
Decrease in blood glucose (Mus musculus [6]): 30%

COc1ccc(CC2SC(=O)NC2=O)cc1C(=O)NCc1cc(C(F)(F)F)cc(C(F)(F)F)c1 (configuration not stated)
Decrease in blood glucose (Mus musculus [6]): 30%

COc1ccc(C(=O)NCc2ccc(C(F)(F)F)cc2)cc1CC1SC(=O)NC1=O (configuration not stated)
Decrease in blood glucose (Mus musculus [6]): 3%

COc1ccc(CNC(=O)c2cc(CC3SC(=O)NC3=O)ccc2OC)cc1 (configuration not stated)
Decrease in blood glucose (Mus musculus [6]): 21%

COc1ccc(CCC2SC(=O)NC2=O)cc1C(=O)NCc1ccc(C(F)(F)F)cc1 (configuration not stated)
Decrease in blood glucose (Mus musculus [1]): 15%
Decrease in blood glucose (Mus musculus [6]): 43%
Decrease in blood glucose (Mus musculus [13]): 20%

COc1ccc(CC2SC(=O)NC2=O)cc1C(=O)NCc1ccccc1 (configuration not stated)
Decrease in blood glucose (Mus musculus [1]): 19%
Decrease in blood glucose (Mus musculus [6]): 37%
Decrease in blood glucose (Mus musculus [13]): 31%

COc1ccc(CC2SC(=O)NC2=O)cc1C(=O)NCc1ccc(F)cc1 (configuration not stated)
Decrease in blood glucose (Mus musculus [6]): 28%

COc1ccc(CC2SC(=O)NC2=O)cc1C(=O)NCc1ccccc1C(F)(F)F (configuration not stated)
Decrease in blood glucose (Mus musculus [6]): 4%

COc1ccc(CC2SC(=O)NC2=O)cc1C(=O)NCc1ccc(OC(F)(F)F)cc1 (configuration not stated)
Decrease in blood glucose (Mus musculus [6]): 34%

COc1ccc(CC2SC(=O)NC2=O)cc1C(=O)Nc1ccc(C(C)(C)C)cc1 (configuration not stated)
Decrease in blood glucose (Mus musculus [6]): 17%

CCOc1ccc(CC2SC(=O)NC2=O)cc1C(=O)NCc1ccc(C(F)(F)F)cc1 (configuration not stated)
Decrease in blood glucose (Mus musculus [6]): 34%

COc1c(CC2SC(=O)NC2=O)cccc1C(=O)NCc1ccc(C(F)(F)F)cc1 (configuration not stated)
Decrease in blood glucose (Mus musculus [6]): 0%

COc1ccc(CC2SC(=O)NC2=O)cc1C(=O)NCc1ccc(N(C)C)cc1 (configuration not stated)
Decrease in blood glucose (Mus musculus [6]): 12%

Cc1ccc(CC2SC(=O)NC2=O)cc1C(=O)NCc1ccc(C(F)(F)F)cc1 (configuration not stated)
Decrease in blood glucose (Mus musculus [6]): 16%

COc1ccc(CCCC2SC(=O)NC2=O)cc1C(=O)NCc1ccc(C(F)(F)F)cc1 (configuration not stated)
Decrease in blood glucose (Mus musculus [1]): 10%
Decrease in blood glucose (Mus musculus [6]): 39%
Decrease in blood glucose (Mus musculus [13]): 29%
